Measurements taken from patent EP0311163A2, “Use of site-specific modified lipolytic enzymes for the selective hydrolysis of organized lipid structures” (DUPHAR INTERNATIONAL RESEARCH B.V, priority 1987, dated 1989).

What was measured:
Assay in all cases: Binding to micellar cis-9-octadecenyl phosphocholine by UV absorption difference spectroscopy
Conditions in all cases: micellar ligand, N = number of lipid monomers per molecule of enzyme, KD = micellar dissociation constant, read-out: N.KD apparent dissociation constant
[1] = molecular target: T1, Porcine pancreatic phospholipase A₂, [ε-Ol-Lys¹¹⁶]-AMPA (Sus scrofa, UniProt P00592)
T1 construct: Conversion of pro-PLA (i.e. Prec) into [ε-Acyl-Lys¹¹⁶]-AMPA; from tissue; host or cells: pig pancreas; chemically amidinated and oleoylated at Lys116
From the text: The following methods, in which the abbreviations used have the meanings given hereinafter, are used for determining the enzymatic activity, the lipid binding properties and the penetrating capacity of the site-specific mono-acylated phospholipases A2 belonging to the invention: -PLA: phospholipase […]: fully ε-amidinated pro-PLA -AMPA: fully ε-amidinated PLA -t-Boc: tertiary butoxycarbonyl -For: formyl -TFA: trifluoroacetic acid -Tris: tri(hydroxymethyl)amino methane -DFP: diisopropylfluorophosphate -DEAE: diethylamino ethyl -CM: carboxymethyl -FPLC: fast protein liquid chromatography -LC: liquid chromatography -TPCK: […]-2-ethanesulphonic acid -DABITC: dimethylamino azobenzene-iso-thiocyanate. • a. Protein concentrations are determined from the absorption at 280 nm using E 1 cm (1%) of 13.0 for porcine and bovine pancreatic ε-amidinated PLA and the mono-acylated analogs thereof. […] Monolayer experiments are carried out using the zero order through with two compartments and the surface barostat technique for measuring phospholipid hydrolysis ([…] and De Haas, Chem. Phys. Lipids, 10, (1973), 127-136). Calculation of the induction time (τ) is carried out as described by […] et al. J. Biol. Chem. 248 (1973), 4023-4034). Surface tension (π) is measured by means of the plate method by Wilhelmy using a thin platinum plate attached to a Beckman R II C Model LM 600 microbalance. • d. […]

[2] = molecular target: T2, Porcine pancreatic phospholipase A₂, [ε-Mal-Lys¹¹⁶]-AMPA (Sus scrofa, UniProt P00592)
T2 construct: Conversion of pro-PLA (i.e. Prec) into [ε-Acyl-Lys¹¹⁶]-AMPA; from tissue; host or cells: pig pancreas; chemically amidinated and maleylated at Lys116
From the text: (§1) The following methods, in which the abbreviations used have the meanings given hereinafter, are used for determining the enzymatic activity, the lipid binding properties and the penetrating capacity of the site-specific mono-acylated phospholipases A2 belonging to the invention: -PLA: phospholipase […]: fully ε-amidinated pro-PLA -AMPA: fully ε-amidinated PLA -t-Boc: tertiary butoxycarbonyl -For: formyl -TFA: trifluoroacetic acid -Tris: tri(hydroxymethyl)amino methane -DFP: diisopropylfluorophosphate -DEAE: diethylamino ethyl -CM: carboxymethyl -FPLC: fast protein liquid chromatography -LC: liquid chromatography -TPCK: […]-2-ethanesulphonic acid -DABITC: dimethylamino azobenzene-iso-thiocyanate. • a. Protein concentrations are determined from the absorption at 280 nm using E 1 cm (1%) of 13.0 for porcine and bovine pancreatic ε-amidinated PLA and the mono-acylated analogs thereof. […] Monolayer experiments are carried out using the zero order through with two compartments and the surface barostat technique for measuring phospholipid hydrolysis ([…] and De Haas, Chem. Phys. Lipids, 10, (1973), 127-136). Calculation of the induction time (τ) is carried out as described by […] et al. J. Biol. Chem. 248 (1973), 4023-4034). Surface tension (π) is measured by means of the plate method by Wilhelmy using a thin platinum plate attached to a Beckman R II C Model LM 600 microbalance. • d. Kinetic measurements with micellar diC8PC are carried out according to De Haas et al, Biochem. Biophys. Acta, 239, (1971) 252-266. […] From the table it appears that the presence of a covalently attached long chain fatty acid on […] or […] considerably improves the binding of the enzyme to the zwitterionic detergent. A larger chain length of the fatty acid leads to a lower apparent dissociation constant (N.KD), which means a greater affinity to the organized lipid-water interface which is formed by the micellar substrate analog. [table]

[3] = molecular target: T3, Porcine pancreatic phospholipase A₂ (PLA), native (Sus scrofa, UniProt P00592)
T3 construct: pancreatic pro-PLA's can be purified and converted into the corresponding PLA's; from tissue; host or cells: pig pancreas
From the text: as §1

[4] = molecular target: T4, Bovine pancreatic phospholipase A₂, [Arg⁶,ε-Pal-Lys¹⁰]-AMPA (Bos taurus, UniProt P00593, N28R)
T4 construct: Conversion of fully ε-amidinated bovine pancreatic AMPrec in [Arg⁶, ε-Pal-Lys¹⁰]-AMPA; from tissue; host or cells: bovine pancreas; semisynthetic: amidinated fragment 11-123 re-elongated with Pal-Lys, Ile, Met and Ala.Leu.Trp.Gln.Phe.Arg.Gly
From the text: as §1

[5] = molecular target: T5, Porcine pancreatic phospholipase A₂, [ε-NH₂-Lys¹¹⁶]-AMPA (Sus scrofa, UniProt P00592)
T5 construct: incubated with 0.1% (wt/wt) trypsin at pH 8.0 (10 mM Tris, 5 mM Ca²⁺) in order to obtain [ε-NH₂-Lys-]AMPA; from tissue; host or cells: pig pancreas; partial amidination in the presence of diC8GS, then trypsin conversion of the pro-enzyme
From the text: as §1

[6] = molecular target: T6, Bovine pancreatic phospholipase A₂, [Arg⁶]-AMPA (Bos taurus, UniProt P00593, N28R)
T6 construct: fully ε-amidinated according to the method by Wallace and Harris, Biochem. J., 217, (1984), 589-594, and converted into AMPA; from tissue; host or cells: bovine pancreas
From the text: as §1

[7] = molecular target: T7, Porcine pancreatic phospholipase A₂, AMPA (fully ε-amidinated PLA) (Sus scrofa, UniProt P00592)
T7 construct: fully ε-amidinated according to the method by Wallace and Harris, Biochem. J., 217, (1984), 589-594, and converted into AMPA; from tissue; host or cells: pig pancreas; chemically amidinated as the pro-enzyme, then converted to the active enzyme
From the text: as §1

[8] = molecular target: T8, Porcine pancreatic phospholipase A₂, [ε-Pal-Lys¹¹⁶]-AMPA (Sus scrofa, UniProt P00592)
T8 construct: Conversion of pro-PLA (i.e. Prec) into [ε-Acyl-Lys¹¹⁶]-AMPA; from tissue; host or cells: pig pancreas; chemically amidinated and palmitoylated at Lys116
From the text: as §1

[9] = molecular target: T9, Porcine pancreatic phospholipase A₂, [ε-Cap-Lys¹¹⁶]-AMPA (Sus scrofa, UniProt P00592)
T9 construct: Conversion of pro-PLA (i.e. Prec) into [ε-Acyl-Lys¹¹⁶]-AMPA; from tissue; host or cells: pig pancreas; chemically amidinated and caprinoylated at Lys116
From the text: as §1

[10] = molecular target: T10, Porcine pancreatic phospholipase A₂, [ε-Lau-Lys¹¹⁶]-AMPA (Sus scrofa, UniProt P00592)
T10 construct: Conversion of pro-PLA (i.e. Prec) into [ε-Acyl-Lys¹¹⁶]-AMPA; from tissue; host or cells: pig pancreas; chemically amidinated and lauroylated at Lys116
From the text: as §1

[11] = molecular target: T11, Porcine pancreatic phospholipase A₂, [ε-Ac-Lys¹¹⁶]-AMPA (Sus scrofa, UniProt P00592)
T11 construct: Conversion of pro-PLA (i.e. Prec) into [ε-Acyl-Lys¹¹⁶]-AMPA; from tissue; host or cells: pig pancreas; chemically amidinated and acetylated at Lys116
From the text: as §1

[12] = molecular target: T12, Bovine pancreatic phospholipase A₂, AMPA (fully ε-amidinated PLA) (Bos taurus, UniProt P00593)
T12 construct: fully ε-amidinated according to the method by Wallace and Harris, Biochem. J., 217, (1984), 589-594, and converted into AMPA; from tissue; host or cells: bovine pancreas; chemically amidinated as the pro-enzyme, then converted to the active enzyme
From the text: as §1

[13] = molecular target: T13, Bovine pancreatic phospholipase A₂ (PLA), native (Bos taurus, UniProt P00593)
T13 construct: pancreatic pro-PLA's can be purified and converted into the corresponding PLA's; from tissue; host or cells: bovine pancreas
From the text: as §1

T6 sequence (P00593 23-145 N28R): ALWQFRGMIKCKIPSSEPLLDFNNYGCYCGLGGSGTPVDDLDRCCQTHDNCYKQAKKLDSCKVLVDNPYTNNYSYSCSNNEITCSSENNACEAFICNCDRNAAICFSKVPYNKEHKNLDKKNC
T4 sequence (P00593 23-145 N28R): as above
T12 sequence (P00593 23-145): as the sequence (P00593 23-145 N28R) above, with R6N counted along it
T13 sequence (P00593 23-145): as the sequence (P00593 23-145 N28R) above, with R6N counted along it
T1 sequence (P00592 23-146): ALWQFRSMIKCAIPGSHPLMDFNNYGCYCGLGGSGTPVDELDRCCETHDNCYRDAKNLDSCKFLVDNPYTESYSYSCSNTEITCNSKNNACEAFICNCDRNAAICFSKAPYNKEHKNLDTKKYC
T11 sequence (P00592 23-146): as above
T3 sequence (P00592 23-146): as above
T10 sequence (P00592 23-146): as above
T9 sequence (P00592 23-146): as above
T5 sequence (P00592 23-146): as above
T7 sequence (P00592 23-146): as above
T8 sequence (P00592 23-146): as above
T2 sequence (P00592 23-146): as above

Kd [1]: 18 µM
Kd [2]: 43 µM
Kd [3]: 58 µM
Kd [4]: 20 µM
Kd [5]: 44 µM
Kd [6]: 120 µM
Kd [7]: 76 µM
Kd [8]: 12 µM
Kd [9]: 33 µM
Kd [10]: 29 µM
Kd [11]: 38 µM
Kd [12]: 3200 µM
Kd [13]: 660 µM
Compound: CCCCCCCC/C=C\CCCCCCCCOP(=O)([O-])OCC[N+](C)(C)C [cis-9-octadecenylphosphocholine]
